This note sets out measurements from patent publication US8618114B2 (priority 2008, dated 2013).

The structures appear in SMILES notation. Where a name gives a salt, the structure may show the parent alone.

The IC50 is the concentration that gives 50% inhibition.

5-HT6 receptor, sequence (P50406 whole entry): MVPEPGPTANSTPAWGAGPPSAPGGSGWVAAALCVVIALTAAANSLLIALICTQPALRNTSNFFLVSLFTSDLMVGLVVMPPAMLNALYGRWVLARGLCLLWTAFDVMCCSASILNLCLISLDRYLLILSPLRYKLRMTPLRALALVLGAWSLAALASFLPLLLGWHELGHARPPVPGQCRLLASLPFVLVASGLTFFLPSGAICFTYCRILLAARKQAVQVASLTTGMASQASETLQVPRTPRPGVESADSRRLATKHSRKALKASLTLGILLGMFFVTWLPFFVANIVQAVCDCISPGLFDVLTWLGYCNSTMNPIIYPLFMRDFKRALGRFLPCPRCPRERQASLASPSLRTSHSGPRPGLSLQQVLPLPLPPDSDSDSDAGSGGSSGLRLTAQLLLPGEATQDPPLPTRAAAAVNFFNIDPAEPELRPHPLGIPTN

In this assay the target is 5-HT6 receptor (Homo sapiens (Human), UniProt P50406). As to the kind of experiment: functional assay for serotonin 5-HT6 receptor inhibition (serotonin-induced intracellular cAMP, LANCE cAMP kit, HEK 293 cells). The assay is classed as cell-based. The following applies: HEK 293 cells with expressed 5-HT6 receptor; reduction of serotonin-induced intracellular cAMP. On the procedure:
Determination of antagonistic activity of compounds of the general formula 1 towards 5-HT6 receptors. Compounds of the general formula 1 were tested for their ability to prevent 5-HT6 receptors activation by serotonin. HEK 293 cells (cells of human embryo's kidney) with artificially expressed 5-HT6 receptor, activation of which by serotonin leads to increasing the concentration of intracellular cAMP, were used. The level of intracellular cAMP was determined using reagent kit LANCE cAMP (PerkinElmer) according to the method described by the manufacturer of the kit [http://las.perkinelmer.com/content/Manuals/MAN_LANCEcAMP384KitUser.pdf]. Effectiveness of the compounds was estimated by their ability to reduce the level of intracellular cAMP induced by serotonin. Table 4 presents IC50 values for the compounds of general formula 1 in the setting of functional assay for serotonin 5-HT6 receptor inhibition. The data given testify their moderate or high antagonistic activity.
On the technique in general: In TR-FRET formats the signal depends on donor and acceptor labels being close together.
Molecule `CSc1nn2c(C)c(Oc3cccnc3)c(C)nc2c1S(=O)(=O)c1ccccc1` [1.1(7)] had an IC50 of 514 nM.

Turning to `CSc1nn2cccnc2c1S(=O)(=O)c1ccccc1` [1.1.1(1), 2-methylsulfanyl-3-phenylsulfonyl-pyrazolo[1,5-a]pyrimidine], the IC50 amounted to 5200 nM.

In the case of `CSc1nn2cccnc2c1S(=O)(=O)c1cccc(Cl)c1` [1.1.1(3)], it took 473 nM to reach half-maximal inhibition (IC50).

As to `CSc1nn2cccnc2c1S(=O)(=O)c1ccc(F)c(Cl)c1` [1.1.1(4)], inhibition was half-maximal at 912 nM (IC50).

`CSc1nn2cccnc2c1S(=O)(=O)c1cccc(C)c1` [1.1.1(6)] gave an IC50 of 2200 nM.

`CSc1nn2cccnc2c1S(=O)(=O)c1ccc(F)cc1` [1.1.1(7)] showed an IC50 of 1870 nM.

`CSc1nn2ccc(C)nc2c1S(=O)(=O)c1ccccc1` [1.1.2(1), 5-methyl-2-methylsulfanyl-3-phenylsulfonyl-pyrazolo[1,5-a]pyrimidine] gave an IC50 of 450 nM.

Consider `CSc1nn2ccc(C)nc2c1S(=O)(=O)c1ccc(F)c(Cl)c1` [1.1.2(5), 5-methyl-2-methylsulfanyl-3-(4-fluoro-3-chlorophenylsulfonyl)-pyrazolo[1,5-a]pyrimidine], for which the half-inhibitory concentration (IC50) worked out at 187 nM.

As for `CSc1nn2c(C)ccnc2c1S(=O)(=O)c1ccc(F)c(Cl)c1` [1.1.3(5), 7-methyl-2-methylsulfanyl-3-(4-fluoro-3-chlorophenylsulfonyl)-pyrazolo[1,5-a]pyrimidine], half-maximal inhibition (IC50) required 156 nM.

`COCc1cc(C)n2nc(SC)c(S(=O)(=O)c3ccccc3)c2n1` [1.1.5(1), 7-methyl-2-methylsulfanyl-5-(methoxymethyl)-3-phenylsulfonyl-pyrazolo[1,5-a]pyrimidine] returned an IC50 of 414 nM.

In turn, `CSc1nn2c(CO)cc(C)nc2c1S(=O)(=O)c1ccccc1` [1.1.6(1), 7-(hydroxymethyl)-5-methyl-2-methylsulfanyl-3-phenylsulfonyl-pyrazolo[1,5-a]pyrimidine] came in with a half-inhibitory concentration (IC50) of 73 nM.

In the case of `COc1cc(-c2ccccn2)nc2c(S(=O)(=O)c3ccccc3)c(SC)nn12` [1.1.8(2), 2-methylsulfanyl-7-methoxy-5-(pyridin-2-yl)-3-phenylsulfonyl-pyrazolo[1,5-a]pyrimidine], the 50% inhibitory concentration (IC50) turned out to be 30100 nM.

The molecule `CNc1nn2c(N3CCOCC3)cc(C)nc2c1S(=O)(=O)c1ccccc1` [1.1.12(5)] gave an IC50 of 197 nM.

In turn, `CNc1nn2c(C)c(Cl)c(C)nc2c1S(=O)(=O)c1ccccc1` [1.2(1)] had a 50% inhibitory concentration (IC50) of 52 nM.

`CNc1nn2c(-c3ccccn3)cc(-c3ccccn3)nc2c1S(=O)(=O)c1ccccc1` [1.2(4)]: the IC50 was found to be 723 nM.

Molecule `CNc1nn2cccnc2c1S(=O)(=O)c1ccccc1` [1.2.1(1), 2-methylamino-3-phenylsulfonyl-pyrazolo[1,5-a]pyrimidine] had an IC50 of 76 nM.

For `CNc1nn2ccc(C)nc2c1S(=O)(=O)c1ccccc1` [1.2.2(1), 5-methyl-2-methylamino-3-phenylsulfonyl-pyrazolo[1,5-a]pyrimidine], the concentration for half-maximal inhibition (IC50) was 16 nM.

On to `CNc1nn2c(C)cc(COC)nc2c1S(=O)(=O)c1ccccc1` [1.2.5(1), 7-methyl-2-methylamino-5-(methoxymethyl)-3-phenylsulfonyl-pyrazolo[1,5-a]pyrimidine], for which the IC50 worked out at 4 nM.

The molecule `CNc1nn2c(CO)cc(C)nc2c1S(=O)(=O)c1ccccc1` [1.2.6(1), 7-(hydroxymethyl)-5-methyl-2-methylamino-3-phenylsulfonyl-pyrazolo[1,5-a]pyrimidine] gave an IC50 of 4 nM.

In turn, `CNc1nn2c(C)cc(-c3ccncc3)nc2c1S(=O)(=O)c1ccccc1` [1.2.8(8), 7-methyl-2-methylamino-5-(pyridin-4-yl)-3-phenylsulfonyl-pyrazolo[1,5-a]pyrimidine] yielded an IC50 of 4 nM.

As for `CNc1nn2c(-c3cccnc3)ccnc2c1S(=O)(=O)c1ccccc1` [1.2.9(2), 2-methylamino-7-(pyridin-3-yl)-3-phenylsulfonyl-pyrazolo[1,5-a]pyrimidine], the IC50 worked out at 1040 nM.

The molecule `CNc1nn2c(-c3cccnc3)cc(C)nc2c1S(=O)(=O)c1ccccc1` [1.2.9(7), 5-methyl-2-methylamino-7-(pyridin-3-yl)-3-phenylsulfonyl-pyrazolo[1,5-a]pyrimidine] had a concentration for half-maximal inhibition (IC50) of 341 nM.

On to `CNc1nn2c(NC)cc(C)nc2c1S(=O)(=O)c1ccccc1` [1.2.12(1), 2,7-di(methylamino)-5-methyl-3-phenylsulfonyl-pyrazolo[1,5-a]pyrimidine], for which the IC50 worked out at 9 nM.

`CNc1nn2c(N(C)C)cc(C)nc2c1S(=O)(=O)c1ccccc1` [1.2.12(2), 7-dimethylamino-5-methyl-2-methylamino-3-phenylsulfonyl-pyrazolo[1,5-a]pyrimidine] showed an IC50 of 12 nM.

Molecule `CNc1nn2c(N(C)C)cc(-c3cccnc3)nc2c1S(=O)(=O)c1ccccc1` [1.2.12(9), 7-dimethylamino-2-methylamino-5-(pyridin-3-yl)-3-phenylsulfonyl-pyrazolo[1,5-a]pyrimidine] returned an IC50 of 13 nM.

With `CNc1nn2c(N(C)CCN(C)C)cc(C)nc2c1S(=O)(=O)c1ccccc1` [1.2.12(11)], half-maximal inhibition (IC50) was put at 172 nM.

On to `CNc1nn2c(N(C)CCN(C)C)cc(C)nc2c1S(=O)(=O)c1ccccc1` [1.2.12(12)], for which half-maximal inhibition (IC50) was put at 1860 nM.

As to `CNc1nn2c(C)c(CCCN)c(C)nc2c1S(=O)(=O)c1ccccc1` [1.2.22(4).HCl], the IC50 is 78 nM.

As for `CNc1nn2c(C)c(CN)c(C)nc2c1S(=O)(=O)c1cccc(F)c1` [1.2.22(6).HCl], it took 25.2 nM to reach half-maximal inhibition (IC50).

The molecule `CNc1nn2c(C)c(CN(C)C)c(C)nc2c1S(=O)(=O)c1ccccc1` [1.2.22(10).HCl] gave an IC50 of 26 nM.

The molecule `CNc1nn2c(C)c(CN(C)C)c(C)nc2c1S(=O)(=O)c1cccc(Cl)c1` [1.2.22(11).HCl] returned an IC50 of 22 nM.

Turning to `CNc1nn2c(C)c(CCN(C)C)c(C)nc2c1S(=O)(=O)c1ccccc1` [1.2.22(14).HCl], 56.4 nM corresponded to half-maximal inhibition (IC50).

`CNc1nn2c(C)c(N(C)C)c(C)nc2c1S(=O)(=O)c1ccccc1` [1.2.22(24).HCl] came in with a concentration for half-maximal inhibition (IC50) of 6 nM.

On to `CNc1nn2c(C)cc(CN)nc2c1S(=O)(=O)c1ccc(F)cc1` [1.2.23(2).HCl], for which the IC50 is 37 nM.

`CNc1nn2c(C)cc(CN(C)C)nc2c1S(=O)(=O)c1ccccc1` [1.2.23(10).HCl] had a 50% inhibitory concentration (IC50) of 60 nM.

`CNc1nn2c(C)cc(CN(C)C)nc2c1S(=O)(=O)c1cccc(Cl)c1` [1.2.23(11).HCl] came in with a 50% inhibitory concentration (IC50) of 67 nM.

Take `CNc1nn2c(C)cc(CN(C)C)nc2c1S(=O)(=O)c1cccc(F)c1` [1.2.23(12).HCl]: the IC50 worked out at 70 nM.

Turning to `CNc1nn2c(CN)cc(C)nc2c1S(=O)(=O)c1ccccc1` [1.2.24(1).HCl], it took 15 nM to reach half-maximal inhibition (IC50).

`CNc1nn2c(CN)cc(C)nc2c1S(=O)(=O)c1ccc(F)cc1` [1.2.24(2).HCl] came in with an IC50 of 22 nM.

Molecule `CNc1nn2c(CCN)cc(C)nc2c1S(=O)(=O)c1ccccc1` [1.2.24(3).HCl] had an IC50 of 30 nM.

`CNc1nn2c(CN(C)C)cc(C)nc2c1S(=O)(=O)c1ccccc1` [1.2.24(10).HCl]: it took 21 nM to reach half-maximal inhibition (IC50).

Regarding `CNc1nn2c(CN(C)C)cc(C)nc2c1S(=O)(=O)c1cccc(Cl)c1` [1.2.24(11).HCl], half-maximal inhibition (IC50) required 33 nM.

Regarding `CNc1nn2c(CN(C)C)cc(C)nc2c1S(=O)(=O)c1cccc(F)c1` [1.2.24(12).HCl], the IC50 was 35 nM.

For `CNc1nn2c(CCN(C)C)cc(C)nc2c1S(=O)(=O)c1ccccc1` [1.2.24(14).HCl], the concentration for half-maximal inhibition (IC50) is 899 nM.
